Assays:
leukemia cells (CEM) = assay: Western blot analysis of apoptosis related proteins; format: cell-based; details: 24 h
Description: The cells were seeded in a density 2.2×10^4 cells/cm^2 using culture medium in 100-mm culture dishes. Immediately the cells were treated by novel saponins: 3 (1; 2.5; 5 μM), 6 (0.1; 0.25; 0.5 μM) and 7 (5; 7.5; 10 μM). DMSO was used as a vehicle for controls. After 24 h treatment, the cells were washed three times with cold PBS (10 mM, pH 7.4) and lysed in ice-cold protein extract RIPA buffer (20 mM Tris-HCl, pH 7.4, 5 mM EDTA, 2 mM EGTA, 100 mM NaCl, 2 mM NaF, 0.2% Nonidet P-40, 30 mM PMSF, 1 mM DTT, […] of aprotinin and leupeptin). The lysate was collected into microfuge tube and incubated on ice for 1 h. It was then cleared by centrifugation at 10,000×g for […] at 4° C., and supernatant was collected, aliquoted, and stored at −80° C. Proteins in lysates were quantified by the Bradford method and then diluted with Laemmli electrophoresis buffer. Proteins were then separated on 10% or 12% SDS-polyacrylamide gels, transferred onto nitrocellulose membranes (Bio-Rad Laboratories, CA, USA) and stained with Ponceau S to check equal protein loading. The membranes were blocked with 5% (w/v) non-fat dry milk and 0.1% Tween-20 in PBS for 2 h and probed with the specific primary antibodies overnight. After washing in PBS and PBS with 0.1% Tween-20, the membranes were probed with horseradish peroxidase-conjugated secondary antibodies and visualized with chemiluminescent detection reagent West Pico Supersignal (Thermo Fisher Scientific, Rockford, USA). To confirm equal protein loading, immunodetection was performed with the anti-α-tubulin monoclonal antibody. The experiments were repeated three times. The protein expressions in treated cells were compared to untreated controls.

[1] = system: lung carcinoma cell line A549; assay: Calcein AM cytotoxicity assay, A549; format: cell-based, human; details: 72 h, means ± SD, three independent experiments in triplicate, read-out: IC50, A 549
Description: (§1) Stock solutions (10 mmol/l) of the tested compounds were prepared by dissolving relevant quantity of the substance in DMSO. […] Calcein AM was obtained from Molecular Probes (Invitrogen Corporation, CA, USA).
(§2) All cell lines were cultured in DMEM medium (Sigma, Mo., USA). Medium was supplemented with 10% heat-inactivated fetal bovine serum, 2 mmol/l L-glutamine and 1% penicillin-streptomycin. The cell lines were maintained under standard cell culture conditions at 37° C. and 5% CO2 in a humid environment. Cells were subcultured twice or three times a week using the standard trypsinization procedure.
(§3) All cell lines were cultured in DMEM medium (Sigma, Mo., USA) supplemented with 10% fetal calf serum, 2 mM glutamine, 100 U/ml penicillin and 100 μg/ml streptomycin, at 37° C. in a fully humidified atmosphere containing 5% CO2. Suspensions of these lines (ca. 1.0×10^5 cells/ml) were placed in 96-well microtitre plates and after 3 h of stabilization the tested compounds were added in serially diluted concentrations. Saponins were dissolved in dimethylsulfoxide (DMSO) before addition to cultures. Control cultures were treated with DMSO alone. The final concentration of DMSO in the reaction mixtures never exceeded 0.6%. Four-fold dilutions of the intended test concentration were added at time zero in 20 μl aliquots to the microtitre plate wells. Usually, each test compound was evaluated at six 4-fold dilutions and in routine testing; the highest well concentration was 50 μM, although this varied in a few cases, depending on the test compound. After 72 h of culture, the cells were incubated with Calcein AM solution (Molecular Probes) for 1 h. The fluorescence of viable cells was quantified using a Fluoroscan Ascent instrument (Microsystems).

[2] = system: malignant melanoma cell line G-361; assay: Calcein AM cytotoxicity assay, G-361; format: cell-based, human; details: 72 h, means ± SD, three independent experiments in triplicate
Description: as §1, §2, §3

[3] = system: breast carcinoma cell line MCF7; assay: Calcein AM cytotoxicity assay, MCF7; format: cell-based, human; details: Calcein AM assay, 72 h; means ± SD, three independent experiments in triplicate
Description: as §1, §2, §3

caspase-3/7 in CEM cells = assay: Activity of caspases-3/7 in treated CEM cells (Ac-DEVD-AMC substrate); format: cell-based; details: 24 h, 7.5 μM and 10 μM (FIG. 4)
Description: The CEM cells treated with the novel compounds were harvested by centrifugations and homogenized in an extraction buffer (10 mM KCl, 5 mM HEPES, 1 mM EDTA, 1 mM EGTA, 0.2% CHAPS, inhibitors of proteases, pH 7.4) on ice for 20 min. The homogenates were clarified by centrifugation at 10,000 g for […] at 4° C., the proteins were quantified by the Bradford method and diluted to the same concentration. Lysates were then incubated for 1 h with […] Ac-DEVD-AMC as a substrate (Sigma-Aldrich) in an assay buffer (25 mM PIPES, 2 mM EGTA, 2 mM MgCl2, 5 mM DTT, pH 7.3). For negative controls, the lysates were supplemented with […] Ac-DEVD-CHO as a caspase-3/7 inhibitor (Sigma-Aldrich). The fluorescence of the product was measured using a Fluoroskan Ascent microplate reader (Labsystems) at 346/442 nm (ex/em). Here, we determined the activity of caspase-3/7 in CEM cells exposed to 3, 6 or 7 using a fluorogenic substrate Ac-DEVD-AMC and/or caspase 3/7 inhibitor […]. Cells were treated in a dose-dependent manner with compounds 3 (1; 2.5; 5 μM), 6 (0.1; 0.25; 0.5 μM) and 7 (5; 7.5; 10 μM).

[4] = system: cervical carcinoma cell line HeLa; assay: Calcein AM cytotoxicity assay, HeLa; format: cell-based; details: 72 h, means ± SD, three independent experiments in triplicate
Description: as §1, §2, §3

[5] = system: T-lymphoblastic leukemia cell line CEM; assay: Calcein AM cytotoxicity assay, CEM; format: cell-based; details: Calcein AM assay, 72 h; means ± SD, three independent experiments in triplicate
Description: as §1, §2, §3

[6] = system: normal human fibroblasts BJ; assay: Calcein AM cytotoxicity assay, normal fibroblasts BJ; format: cell-based; details: 72 h, means ± SD, three independent experiments in triplicate
Description: as §1, §2, §3

CEM cells = assay: Flow cytometry cell cycle and apoptosis (subG1) analysis; format: cell-based
Description: The leukemia cancer CEM cells were trypsinized, seeded in 6 well plates, and immediately incubated with the respective compounds. […] Triton X-100, and 50 μg/ml propidium iodide in PBS. DNA content was assessed with a flow cytometer (Cell Lab Quanta SC—MPL, Beckman Coulter, Calif., USA). In a histogram analysis, distribution of cells into the subG1 (“apoptotic cells”), the G0/G1, S and the G2/M peak was quantified using software MultiCycle AV (Phoenix Flow Systems, CA, USA).

C/C=C/C(=O)OC[C@@H](C)[C@@]1(O)[C@@H](O[C@@H]2OC[C@H](O)[C@H](O[C@@H]3OC[C@@H](O)[C@H](O)[C@H]3OC(=O)c3ccc(OC)cc3)[C@H]2OC(C)=O)C[C@H]2[C@@H]3CC=C4C[C@@H](O)CC[C@]4(C)[C@H]3CC[C@@]21C [Compound 7, (20R)-21-O-[(E)-but-2-enoyl]-20-methylpregn-5-ene-3β,16β,17α,21-tetraol 16-O-{2-O-(4-methoxybenzoyl)-β-D-xylopyranosyl-(1→3)-2′-O-acetyl-α-L-arabinopyranoside}]
PARP (Western blot) (leukemia cells (CEM); dose-dependent (FIG. 5)): cleavage of PARP | antiapoptotic Bcl-2 protein (leukemia cells (CEM); dose-dependent (FIG. 5)): increased | caspase-3 (Western blot) (leukemia cells (CEM); dose-dependent (FIG. 5)): accumulation of caspase-3 | expression of tumour suppressor protein p53 (leukemia cells (CEM); dose-dependent (FIG. 5)): enhanced expression | phosphorylation of pRb S780 (leukemia cells (CEM); same concentrations (FIG. 5)): increase of phosphorylation of pRb S780 | IC50 [1]: 550 ± 200 nM | IC50 [2]: 890 ± 90 nM | IC50 [3]: 840 ± 510 nM | activity of caspase-3/7 compared with the untreated control (caspase-3/7 in CEM cells): threefold increase | IC50 [4]: 1940 ± 50 nM | IC50 [5]: 340 ± 40 nM | IC50 [6]: 230 ± 80 nM | subG1 phase of the cell cycle (apoptotic cells) (CEM cells; CEM cell line after treatment): increase in subG1 phase | amount of debris (subG1) compared with untreated controls (CEM cells; CEM cells, 24 h (FIG. 3)): 3 fold | distribution of CEM cells in cell cycle phases (FIG. 2) (CEM cells; CEM cells, increasing concentrations): increased the number of S-phase and G2/M cells with concomitant decrease of G0/G1 cells in dose-dependent manner | Apoptosis subG1 (CEM cells; CEM, 24 h, 3 μM): 15% | Cell cycle distribution G0/G1 (CEM cells; CEM, 24 h, 3 μM): 14% | Cell cycle distribution G2/M (CEM cells; CEM, 24 h, 3 μM): 30% | Cell cycle distribution S (CEM cells; CEM, 24 h, 3 μM): 41%

From patent US8552161B2, “Saponin compounds, methods of preparation thereof, use thereof and pharmaceutical compositions” (Uniwersytet W Bialymstoku, priority 2009, dated 2013)
